According to patent US20200113181A1, “HERBICIDAL COMPOUNDS” (SYNGENTA PARTICIPATIONS AG, priority 2016, published 2020):

How the values were obtained:
Assay type in all cases: in vivo
[1] = tested on: Echinochloa crus-galli (ECHCG); experiment: Glasshouse herbicide test, pre- and post-emergence, Echinochloa crus-galli; conditions: 250 g/h, evaluated after 13 days; for ECHCG POST, percentage damage caused to the plant (five point scale): post-emergence; for ECHCG PRE, percentage damage caused to the plant (five point scale): pre-emergence
Procedure: (§1) Seeds of a variety of test species are sown in standard soil in pots (Lolium perenne (LOLPE), Setaria faberi (SETFA), Alopecurus myosuroides (ALOMY), Echinochloa crus-galli (ECHCG), Avena fatua (AVEFA)). After cultivation for one day (pre-emergence) or after 8 days cultivation (post-emergence) under controlled conditions in a glasshouse (at 24/16° C., day/night; 14 hours light; 65% humidity), the plants are sprayed with an aqueous spray solution derived from the formulation of the technical active ingredient in acetone/water (50:50) solution containing 0.5% Tween 20 (polyoxyethelyene sorbitan monolaurate, CAS RN 9005-64-5). Compounds are applied at […]. The test plants are then grown in a glasshouse under controlled conditions in a glasshouse (at 24/16° C., day/night; 14 hours light; 65% humidity) and watered twice daily. After 13 days for pre and post-emergence, the test is evaluated for the percentage damage caused to the plant. The biological activities are shown in the following table on a five point scale (5=80-100%; 4=60-79%; 3=40-59%; 2=20-39%; 1=0-19%).

Setaria faberi (SETFA) = experiment: Glasshouse herbicide test, pre- and post-emergence, Setaria faberi; conditions: 250 g/h, evaluated after 13 days; for SETFA POST, percentage damage caused to the plant (five point scale): post-emergence; for SETFA PRE, percentage damage caused to the plant (five point scale): pre-emergence
Procedure: as §1

Lolium perenne (LOLPE) = experiment: Glasshouse herbicide test, pre- and post-emergence, Lolium perenne; conditions: 250 g/h, evaluated after 13 days; for LOLPE POST, percentage damage caused to the plant (five point scale): post-emergence; for LOLPE PRE, percentage damage caused to the plant (five point scale): pre-emergence
Procedure: as §1

[2] = tested on: Alopecurus myosuroides (ALOMY); experiment: Glasshouse herbicide test, pre- and post-emergence, Alopecurus myosuroides; conditions: 250 g/h, evaluated after 13 days; for ALOMY POST, percentage damage caused to the plant (five point scale): post-emergence; for ALOMY PRE, percentage damage caused to the plant (five point scale): pre-emergence
Procedure: as §1

Avena fatua (AVEFA) = experiment: Glasshouse herbicide test, pre- and post-emergence, Avena fatua; conditions: 250 g/h, evaluated after 13 days; for AVEFA POST, percentage damage caused to the plant (five point scale): post-emergence; for AVEFA PRE, percentage damage caused to the plant (five point scale): pre-emergence
Procedure: as §1

CC#Cc1ccc(C2=C(OC(=O)OC)[C@@H]3[C@H](C2=O)[C@@H]2O[C@H]3C[C@@H]2COC)c(OC)c1 (racemic) [Compound 1.28]
5 (5=80-100%): ECHCG POST, percentage damage caused to the plant (five point scale) [1] | ECHCG PRE, percentage damage caused to the plant (five point scale) [1] | SETFA POST, percentage damage caused to the plant (five point scale) (Setaria faberi (SETFA)) | SETFA PRE, percentage damage caused to the plant (five point scale) (Setaria faberi (SETFA)) | LOLPE POST, percentage damage caused to the plant (five point scale) (Lolium perenne (LOLPE)) | LOLPE PRE, percentage damage caused to the plant (five point scale) (Lolium perenne (LOLPE)) | ALOMY POST, percentage damage caused to the plant (five point scale) [2] | ALOMY PRE, percentage damage caused to the plant (five point scale) [2] | AVEFA POST, percentage damage caused to the plant (five point scale) (Avena fatua (AVEFA)) | AVEFA PRE, percentage damage caused to the plant (five point scale) (Avena fatua (AVEFA))

CC#Cc1ccc(C2=C(OC(C)=O)[C@@H]3[C@H](C2=O)[C@@H]2O[C@H]3C[C@@H]2COC)c(OC)c1 (racemic) [Compound 1.29]
5 (5=80-100%): ECHCG POST, percentage damage caused to the plant (five point scale) [1] | ECHCG PRE, percentage damage caused to the plant (five point scale) [1] | SETFA POST, percentage damage caused to the plant (five point scale) (Setaria faberi (SETFA)) | SETFA PRE, percentage damage caused to the plant (five point scale) (Setaria faberi (SETFA)) | LOLPE POST, percentage damage caused to the plant (five point scale) (Lolium perenne (LOLPE)) | LOLPE PRE, percentage damage caused to the plant (five point scale) (Lolium perenne (LOLPE)) | ALOMY POST, percentage damage caused to the plant (five point scale) [2] | ALOMY PRE, percentage damage caused to the plant (five point scale) [2] | AVEFA POST, percentage damage caused to the plant (five point scale) (Avena fatua (AVEFA)) | AVEFA PRE, percentage damage caused to the plant (five point scale) (Avena fatua (AVEFA))

CC#Cc1ccc(C2C(=O)[C@@H]3[C@H](C2=O)[C@H]2CC[C@@H]3O2)c(OCC)c1 (mixture of isomers) [Compound 1.30]
5 (5=80-100%): ECHCG POST, percentage damage caused to the plant (five point scale) [1] | ECHCG PRE, percentage damage caused to the plant (five point scale) [1] | SETFA PRE, percentage damage caused to the plant (five point scale) (Setaria faberi (SETFA)) | LOLPE POST, percentage damage caused to the plant (five point scale) (Lolium perenne (LOLPE)) | LOLPE PRE, percentage damage caused to the plant (five point scale) (Lolium perenne (LOLPE)) | ALOMY POST, percentage damage caused to the plant (five point scale) [2] | ALOMY PRE, percentage damage caused to the plant (five point scale) [2] | AVEFA POST, percentage damage caused to the plant (five point scale) (Avena fatua (AVEFA)) | AVEFA PRE, percentage damage caused to the plant (five point scale) (Avena fatua (AVEFA))

CC#Cc1ccc(C2C(=O)[C@@H]3[C@H](C2=O)[C@H]2CC[C@@H]3O2)c(OCCC)c1 (mixture of isomers) [Compound 1.31]
5 (5=80-100%): ECHCG POST, percentage damage caused to the plant (five point scale) [1] | ECHCG PRE, percentage damage caused to the plant (five point scale) [1] | SETFA POST, percentage damage caused to the plant (five point scale) (Setaria faberi (SETFA)) | SETFA PRE, percentage damage caused to the plant (five point scale) (Setaria faberi (SETFA)) | LOLPE POST, percentage damage caused to the plant (five point scale) (Lolium perenne (LOLPE)) | LOLPE PRE, percentage damage caused to the plant (five point scale) (Lolium perenne (LOLPE)) | ALOMY POST, percentage damage caused to the plant (five point scale) [2] | ALOMY PRE, percentage damage caused to the plant (five point scale) [2] | AVEFA POST, percentage damage caused to the plant (five point scale) (Avena fatua (AVEFA)) | AVEFA PRE, percentage damage caused to the plant (five point scale) (Avena fatua (AVEFA))

CC#Cc1ccc(C2C(=O)[C@@H]3[C@H](C2=O)[C@H]2CC[C@@H]3O2)c(OCCOC)c1 (mixture of isomers) [Compound 1.32]
3 (3=40-59%): ECHCG PRE, percentage damage caused to the plant (five point scale) [1] | SETFA PRE, percentage damage caused to the plant (five point scale) (Setaria faberi (SETFA))
1 (1=0-19%): ALOMY PRE, percentage damage caused to the plant (five point scale) [2]
4 (4=60-79%): LOLPE PRE, percentage damage caused to the plant (five point scale) (Lolium perenne (LOLPE)) | ALOMY POST, percentage damage caused to the plant (five point scale) [2] | AVEFA PRE, percentage damage caused to the plant (five point scale) (Avena fatua (AVEFA))
5 (5=80-100%): ECHCG POST, percentage damage caused to the plant (five point scale) [1] | SETFA POST, percentage damage caused to the plant (five point scale) (Setaria faberi (SETFA)) | LOLPE POST, percentage damage caused to the plant (five point scale) (Lolium perenne (LOLPE)) | AVEFA POST, percentage damage caused to the plant (five point scale) (Avena fatua (AVEFA))

CC#Cc1ccc(C2C(=O)[C@@H]3[C@H](C2=O)[C@@H]2O[C@H]3C[C@]2(C)OC)c(OC)c1 (mixture of isomers) [Compound 1.33]
5 (5=80-100%): ECHCG POST, percentage damage caused to the plant (five point scale) [1] | ECHCG PRE, percentage damage caused to the plant (five point scale) [1] | SETFA POST, percentage damage caused to the plant (five point scale) (Setaria faberi (SETFA)) | SETFA PRE, percentage damage caused to the plant (five point scale) (Setaria faberi (SETFA)) | LOLPE POST, percentage damage caused to the plant (five point scale) (Lolium perenne (LOLPE)) | LOLPE PRE, percentage damage caused to the plant (five point scale) (Lolium perenne (LOLPE)) | ALOMY POST, percentage damage caused to the plant (five point scale) [2] | ALOMY PRE, percentage damage caused to the plant (five point scale) [2] | AVEFA POST, percentage damage caused to the plant (five point scale) (Avena fatua (AVEFA)) | AVEFA PRE, percentage damage caused to the plant (five point scale) (Avena fatua (AVEFA))

CC#Cc1ccc(C2C(=O)[C@@H]3[C@@H]4O[C@@H](C[C@@H]4COC)[C@@H]3C2=O)c(OC)c1 (stereo in doubt) [Compound 1.19, 8-methoxymethyl-4-[2-methoxy-4-(prop-1-yn-1-yl)phenyl]-10-oxatricyclo[5.2.1.0^2,6]decane-3,5-dione]
5 (5=80-100%): ECHCG POST, percentage damage caused to the plant (five point scale) [1] | ECHCG PRE, percentage damage caused to the plant (five point scale) [1] | SETFA POST, percentage damage caused to the plant (five point scale) (Setaria faberi (SETFA)) | SETFA PRE, percentage damage caused to the plant (five point scale) (Setaria faberi (SETFA)) | LOLPE POST, percentage damage caused to the plant (five point scale) (Lolium perenne (LOLPE)) | LOLPE PRE, percentage damage caused to the plant (five point scale) (Lolium perenne (LOLPE)) | ALOMY POST, percentage damage caused to the plant (five point scale) [2] | ALOMY PRE, percentage damage caused to the plant (five point scale) [2] | AVEFA POST, percentage damage caused to the plant (five point scale) (Avena fatua (AVEFA)) | AVEFA PRE, percentage damage caused to the plant (five point scale) (Avena fatua (AVEFA))

CC#Cc1ccc(C2C(=O)[C@@H]3[C@H](C2=O)[C@@]2(C)CC[C@]3(C)O2)c(OC)c1 (stereo partly drawn) [Compound 1.11]
4 (4=60-79%): LOLPE PRE, percentage damage caused to the plant (five point scale) (Lolium perenne (LOLPE))
5 (5=80-100%): ECHCG POST, percentage damage caused to the plant (five point scale) [1] | SETFA POST, percentage damage caused to the plant (five point scale) (Setaria faberi (SETFA)) | LOLPE POST, percentage damage caused to the plant (five point scale) (Lolium perenne (LOLPE)) | ALOMY POST, percentage damage caused to the plant (five point scale) [2] | ALOMY PRE, percentage damage caused to the plant (five point scale) [2] | AVEFA POST, percentage damage caused to the plant (five point scale) (Avena fatua (AVEFA))
3 (3=40-59%): ECHCG PRE, percentage damage caused to the plant (five point scale) [1] | SETFA PRE, percentage damage caused to the plant (five point scale) (Setaria faberi (SETFA)) | AVEFA PRE, percentage damage caused to the plant (five point scale) (Avena fatua (AVEFA))

CC#Cc1ccc(C2C(=O)[C@H]3[C@@H]4CC[C@@](C)(O4)[C@H]3C2=O)c(OC)c1 (stereo partly drawn) [Compound 1.21]
5 (5=80-100%): ECHCG POST, percentage damage caused to the plant (five point scale) [1] | SETFA POST, percentage damage caused to the plant (five point scale) (Setaria faberi (SETFA)) | AVEFA POST, percentage damage caused to the plant (five point scale) (Avena fatua (AVEFA))
4 (4=60-79%): SETFA PRE, percentage damage caused to the plant (five point scale) (Setaria faberi (SETFA)) | LOLPE POST, percentage damage caused to the plant (five point scale) (Lolium perenne (LOLPE)) | LOLPE PRE, percentage damage caused to the plant (five point scale) (Lolium perenne (LOLPE)) | ALOMY POST, percentage damage caused to the plant (five point scale) [2] | ALOMY PRE, percentage damage caused to the plant (five point scale) [2] | AVEFA PRE, percentage damage caused to the plant (five point scale) (Avena fatua (AVEFA))
3 (3=40-59%): ECHCG PRE, percentage damage caused to the plant (five point scale) [1]

CC#Cc1ccc(C2C(=O)[C@H]3[C@@H]4CC[C@@](C)(O4)[C@H]3C2=O)c(OC)c1 (stereo partly drawn) [Compound 1.22]
5 (5=80-100%): ECHCG POST, percentage damage caused to the plant (five point scale) [1] | ECHCG PRE, percentage damage caused to the plant (five point scale) [1] | SETFA POST, percentage damage caused to the plant (five point scale) (Setaria faberi (SETFA)) | SETFA PRE, percentage damage caused to the plant (five point scale) (Setaria faberi (SETFA)) | LOLPE POST, percentage damage caused to the plant (five point scale) (Lolium perenne (LOLPE)) | LOLPE PRE, percentage damage caused to the plant (five point scale) (Lolium perenne (LOLPE)) | ALOMY POST, percentage damage caused to the plant (five point scale) [2] | ALOMY PRE, percentage damage caused to the plant (five point scale) [2] | AVEFA POST, percentage damage caused to the plant (five point scale) (Avena fatua (AVEFA)) | AVEFA PRE, percentage damage caused to the plant (five point scale) (Avena fatua (AVEFA))
